Reference: patent US9695155B2, “Herbicidal substituted pyrimidinyloxy benzene compounds” (E. I. DU PONT DE NEMOURS AND COMPANY, priority 2013, dated 2017)

Tests used:
[1] = tested on: winter wheat; experiment: Test D preemergence; assay type: in vivo, Triticum aestivum; conditions: Triticum aestivum, pre-emergence; for plant injury at 16 g/ha: 16 g ai/ha; for plant injury at 16 g/ha / plant injury at 31 g/ha: scale 0 (no effect) to 100 (complete control), read-out: Plant response rating, Wheat, Winter; for plant injury at 31 g/ha: 31 g ai/ha; for plant injury at 62 g/ha: 62 g ai/ha; for plant injury at 125 g/ha: 125 g ai/ha
Text: (§1) Seeds of plant species selected from bluegrass (annual bluegrass, Poa annua), blackgrass (Alopecurus myosuroides), canarygrass (littleseed canarygrass, Phalaris minor), chickweed (common chickweed, Stellaria media), galium (catchweed bedstraw, Galium aparine), bromegrass, downy (downy bromegrass, Bromus tectorum), field poppy (Papaver rhoeas), field violet (Viola arvensis), green foxtail (Setaria viridis), deadnettle (henbit deadnettle, Lamium amplexicaule), Italian ryegrass (Lolium multiflorum), kochia (Kochia scoparia), lambsquarters (Chenopodium album), oilseed rape (Brassica napus), pigweed (Amaranthus retroflexus), chamomile (scentless chamomile, Matricaria inodora), Russian thistle (Salsola kali), speedwell (bird's-eye speedwell, Veronica persica), spring barley (Hordeum vulgare), spring wheat (Triticum aestivum), wild buckwheat (Polygonum convolvulus), wild mustard (Sinapis arvensis), wild oat (Avena fatua), wild radish (Raphanus raphanistrum), windgrass (Apera spica-venti), winter barley (Hordeum vulgare), and winter wheat (Triticum aestivum) were planted into a silt loam soil and treated preemergence with test chemicals formulated in a non-phytotoxic solvent mixture which included a surfactant.
(§2) At the same time, these species were planted in pots containing Redi-Earth® planting medium (Scotts Company, 14111 Scottslawn Road, Marysville, Ohio 43041) comprising spaghnum peat moss, vermiculite, wetting agent and starter nutrients and treated with postemergence applications of the test chemicals formulated in the same manner. Plants ranged in height from 2 to 18 cm (1- to 4-leaf stage). Treated plants and controls were maintained in a controlled growth environment for 7 to 21 days after which time all species were compared to controls and visually evaluated. Plant response ratings, summarized in Table D, are based on a scale of 0 to 100 where 0 is no effect and 100 is complete control. A dash (-) response means no test result.

[2] = tested on: spring wheat; experiment: Test D preemergence; assay type: in vivo, Triticum aestivum; conditions: Triticum aestivum, pre-emergence; for plant injury at 16 g/ha: 16 g ai/ha; for plant injury at 16 g/ha / plant injury at 31 g/ha: scale 0 (no effect) to 100 (complete control), read-out: Plant response rating, Wheat, Spring; for plant injury at 31 g/ha: 31 g ai/ha; for plant injury at 62 g/ha: 62 g ai/ha; for plant injury at 125 g/ha: 125 g ai/ha
Text: as §1, §2

[3] = tested on: Italian ryegrass; experiment: Test D preemergence; assay type: in vivo, Lolium multiflorum; conditions: Lolium multiflorum, pre-emergence; for pest or weed control at 16 g/ha: 16 g ai/ha; for pest or weed control at 16 g/ha / pest or weed control at 31 g/ha: scale 0 (no effect) to 100 (complete control), read-out: Plant response rating, Ryegrass, Italian; for pest or weed control at 31 g/ha: 31 g ai/ha; for pest or weed control at 62 g/ha: 62 g ai/ha; for pest or weed control at 125 g/ha: 125 g ai/ha
Text: as §1, §2

[4] = tested on: chickweed; experiment: Test D postemergence; assay type: in vivo, Stellaria media; conditions: Stellaria media, post-emergence; for pest or weed control at 16 g/ha: 16 g ai/ha, scale 0-100, read-out: Plant response rating, Chickweed; for pest or weed control at 31 g/ha: 31 g ai/ha; for pest or weed control at 62 g/ha: 62 g ai/ha; for pest or weed control at 125 g/ha: 125 g ai/ha
Summary of the method: (§3)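 After treatment, visual injury versus untreated plants, 0–100 scale, assessed at 7 to 21 days. Applications were made preemergence to silt loam-sown seed and postemergence to seedlings 2–18 cm high in potting medium.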

[5] = tested on: winter wheat; experiment: Test D postemergence; assay type: in vivo, Triticum aestivum; conditions: Triticum aestivum, post-emergence; for plant injury at 16 g/ha: 16 g ai/ha, scale 0-100, read-out: Plant response rating, Wheat, Winter; for plant injury at 31 g/ha: 31 g ai/ha; for plant injury at 62 g/ha: 62 g ai/ha; for plant injury at 125 g/ha: 125 g ai/ha
Summary of the method: as §3

[6] = tested on: spring wheat; experiment: Test D postemergence; assay type: in vivo, Triticum aestivum; conditions: Triticum aestivum, post-emergence; for plant injury at 16 g/ha: 16 g ai/ha, scale 0-100, read-out: Plant response rating, Wheat, Spring; for plant injury at 31 g/ha: 31 g ai/ha; for plant injury at 62 g/ha: 62 g ai/ha; for plant injury at 125 g/ha: 125 g ai/ha
Summary of the method: as §3

[7] = tested on: kochia; experiment: Test D preemergence; assay type: in vivo, Kochia scoparia; conditions: Bassia scoparia, pre-emergence; for pest or weed control at 16 g/ha: 16 g ai/ha, scale 0 (no effect) to 100 (complete control), read-out: Plant response rating, Kochia; for pest or weed control at 31 g/ha: 31 g ai/ha; for pest or weed control at 62 g/ha: 62 g ai/ha; for pest or weed control at 125 g/ha: 125 g ai/ha
Summary of the method: as §3

[8] = tested on: pigweed; experiment: Test D postemergence; assay type: in vivo, Amaranthus retroflexus; conditions: Amaranthus retroflexus, post-emergence; for pest or weed control at 16 g/ha: 16 g ai/ha, scale 0-100, read-out: Plant response rating, Pigweed; for pest or weed control at 31 g/ha: 31 g ai/ha; for pest or weed control at 62 g/ha: 62 g ai/ha; for pest or weed control at 125 g/ha: 125 g ai/ha
Text: as §1, §2

[9] = scale 0-100, read-out: Plant response rating, Wheat, Winter
[10] = scale 0-100, read-out: Plant response rating, Wheat, Spring
[11] = scale 0-100, read-out: Plant response rating, Ryegrass, Italian
[12] = scale 0 to 100 (0 no effect, 100 complete control), read-out: Plant response rating, Chickweed
[13] = scale 0 to 100 (0 no effect, 100 complete control), read-out: Plant response rating, Wheat, Winter
[14] = scale 0 to 100 (0 no effect, 100 complete control), read-out: Plant response rating, Wheat, Spring
[15] = scale 0-100, read-out: Plant response rating, Kochia
[16] = scale 0 to 100 (0 no effect, 100 complete control), read-out: Plant response rating, Pigweed

Row | SMILES | plant injury at 16 g/ha [1] | plant injury at 31 g/ha [1] | plant injury at 62 g/ha [1, 9] | plant injury at 125 g/ha [1, 9] | plant injury at 16 g/ha [2] | plant injury at 31 g/ha [2] | plant injury at 62 g/ha [2, 10] | plant injury at 125 g/ha [2, 10] | pest or weed control at 16 g/ha [3] | pest or weed control at 31 g/ha [3] | pest or weed control at 62 g/ha [3, 11] | pest or weed control at 125 g/ha [3, 11] | pest or weed control at 16 g/ha [4] | pest or weed control at 31 g/ha [4, 12] | pest or weed control at 62 g/ha [4, 12] | pest or weed control at 125 g/ha [4, 12] | plant injury at 16 g/ha [5] | plant injury at 31 g/ha [5, 13] | plant injury at 62 g/ha [5, 13] | plant injury at 125 g/ha [5, 13] | further results
1 | FC(F)(F)c1cnn(-c2ccccc2Oc2ncc(Br)cn2)c1 [Compound 18, 5-bromo-2-[2-[4-(trifluoromethyl)-1H-pyrazol-1-yl]phenoxy]pyrimidine] | 0% | 0% | 5% | 5% | 0% | 0% | 0% | 5% | 10% | 10% | 20% | 25% | 15% | 40% | 45% | 60% | 5% | 5% | 10% | 15% | plant injury at 250 g/ha ([1]; 250 g ai/ha, scale 0-100, read-out: Plant response rating, Wheat, Winter): 40%; plant injury at 250 g/ha ([2]; 250 g ai/ha, scale 0-100, read-out: Plant response rating, Wheat, Spring): 15%; pest or weed control at 250 g/ha ([3]; 250 g ai/ha, scale 0-100, read-out: Plant response rating, Ryegrass, Italian): 50%; pest or weed control at 250 g/ha ([4]; 250 g ai/ha, scale 0 to 100 (0 no effect, 100 complete control), read-out: Plant response rating, Chickweed): 95%; plant injury at 250 g/ha ([5]; 250 g ai/ha, scale 0 to 100 (0 no effect, 100 complete control), read-out: Plant response rating, Wheat, Winter): 20%; plant injury at 16 g/ha [6]: 10%; plant injury at 31 g/ha [6, 14]: 10%; plant injury at 62 g/ha [6, 14]: 15%; plant injury at 125 g/ha [6, 14]: 20%; plant injury at 250 g/ha ([6]; 250 g ai/ha, scale 0 to 100 (0 no effect, 100 complete control), read-out: Plant response rating, Wheat, Spring): 25%; pest or weed control at 16 g/ha [7]: 15%; pest or weed control at 31 g/ha [7, 15]: 90%; pest or weed control at 62 g/ha [7, 15]: 75%; pest or weed control at 125 g/ha [7, 15]: 100%; pest or weed control at 250 g/ha ([7]; 250 g ai/ha, scale 0-100, read-out: Plant response rating, Kochia): 100%; pest or weed control at 16 g/ha [8]: 65%; pest or weed control at 31 g/ha [8, 16]: 75%; pest or weed control at 62 g/ha [8, 16]: 75%; pest or weed control at 125 g/ha [8, 16]: 95%; pest or weed control at 250 g/ha ([8]; 250 g ai/ha, scale 0 to 100 (0 no effect, 100 complete control), read-out: Plant response rating, Pigweed): 95%
2 | FC(F)(F)COc1cnn(-c2ccccc2Oc2ncc(Cl)cn2)c1 [Compound 138, 5-chloro-2-[2-[4-(2,2,2-trifluoroethoxy)-1H-pyrazol-1-yl]phenoxy]pyrimidine] | 0% | 5% | 5% | 5% | 0% | 10% | 15% | 15% | 0% | 0% | 0% | 10% | 20% | 20% | 40% | 55% | 0% | 0% | 5% | 15% | plant injury at 16 g/ha [6]: 5%; plant injury at 31 g/ha [6, 14]: 5%; plant injury at 62 g/ha [6, 14]: 5%; plant injury at 125 g/ha [6, 14]: 15%; pest or weed control at 16 g/ha [7]: 20%; pest or weed control at 31 g/ha [7, 15]: 20%; pest or weed control at 62 g/ha [7, 15]: 35%; pest or weed control at 125 g/ha [7, 15]: 55%; pest or weed control at 16 g/ha [8]: 65%; pest or weed control at 31 g/ha [8, 16]: 70%; pest or weed control at 62 g/ha [8, 16]: 90%; pest or weed control at 125 g/ha [8, 16]: 90%
